From patent publication US6613718B2, “Aryl ether derivatives and processes for their preparation and herbicidal and desiccant compositions containing them” (Ishihara Sangyo Kaisha, Ltd., priority 2001, dated 2003)

Assays:
Assay type in all cases: in vivo
[1] = test system: field corn (Zea mays L., var. Dekalb 535, CORN); experiment: Post-emerge greenhouse screening, crop safety / corn selectivity (phytotoxicity rating); settings: 14 days after application
Summary of the method: (§1)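 Track-sprayer application, nozzle 40-45 cm above soil or canopy; compound in acetone at 15 to 1000 g ai/ha. Visual 0–100 rating at 14 days after treatment.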

[2] = test system: velvetleaf (Abutilon theophrasti, ABUTH); experiment: Pre-emerge greenhouse herbicide activity screening, phytotoxicity rating; settings: 14 days after application
Summary of the method: as §1

[3] = test system: large crabgrass (Digitaria sanguinalis, DIGSA); experiment: as above; settings: 14 days after application
Summary of the method: as §1

[4] = test system: ivyleaf morningglory (Ipomoea hederacea, IPOHE); experiment: as above; settings: 14 days after application
Summary of the method: as §1

[5] = test system: lambsquarters (Chenopodium album, CHEAL); experiment: as above; settings: 14 days after application
Summary of the method: as §1

[6] = test system: johnsongrass (Sorghum halepense, SORHA); experiment: as above; settings: 14 days after application
Summary of the method: as §1

[7] = test system: redroot pigweed (Amaranthus retroflexus, AMARE); experiment: as above; settings: 14 days after application
Summary of the method: as §1

[8] = test system: green foxtail (Setaria viridis, SETVI); experiment: as above; settings: 14 days after application
Summary of the method: as §1

[9] = test system: common ragweed (Ambrosia artemisiifolia L., AMBEL); experiment: as above; settings: 14 days after application
Summary of the method: as §1

[10] = test system: sicklepod (Cassia obtusifolia, CASOB); experiment: as above; settings: 14 days after application
Summary of the method: as §1

[11] = test system: barnyardgrass (Echinochloa crus-galli, ECHCG); experiment: as above; settings: 14 days after application
Summary of the method: as §1

[12] = test system: velvetleaf (Abutilon theophrasti, ABUTH); experiment: Post-emerge greenhouse herbicide activity screening, phytotoxicity rating; settings: 14 days after application
Summary of the method: as §1

[13] = test system: large crabgrass (Digitaria sanguinalis, DIGSA); experiment: as above; settings: 14 days after application
Summary of the method: as §1

[14] = test system: ivyleaf morningglory (Ipomoea hederacea, IPOHE); experiment: as above; settings: 14 days after application
Summary of the method: as §1

[15] = test system: lambsquarters (Chenopodium album, CHEAL); experiment: as above
Summary of the method: as §1

[16] = test system: johnsongrass (Sorghum halepense, SORHA); experiment: as above; settings: 14 days after application
Summary of the method: as §1

[17] = test system: redroot pigweed (Amaranthus retroflexus, AMARE); experiment: as above
Summary of the method: as §1

[18] = test system: green foxtail (Setaria viridis, SETVI); experiment: as above
Summary of the method: as §1

[19] = test system: common ragweed (Ambrosia artemisiifolia L., AMBEL); experiment: as above
Summary of the method: as §1

[20] = test system: sicklepod (Cassia obtusifolia, CASOB); experiment: as above
Summary of the method: as §1

[21] = test system: barnyardgrass (Echinochloa crus-galli, ECHCG); experiment: as above; settings: 14 days after application
Summary of the method: as §1

[22] = test system: field corn (Zea mays L., var. Dekalb 535, CORN); experiment: Pre-emerge greenhouse screening, crop safety (phytotoxicity rating); settings: 14 days after application
Summary of the method: as §1

[23] = test system: soybean (Glycine max L., var. Pella 86, SOY); experiment: as above; settings: 14 days after application
Summary of the method: as §1

[24] = test system: upland rice (Oryza sp., var.Tebonnet, RICE); experiment: as above; settings: 14 days after application
Summary of the method: as §1

[25] = test system: soybean (Glycine max L., var. Pella 86, SOY); experiment: Post-emerge greenhouse screening, crop safety (phytotoxicity rating); settings: 14 days after application
Summary of the method: as §1

[26] = test system: upland rice (Oryza sp., var.Tebonnet, RICE); experiment: as above; settings: 14 days after application
Summary of the method: as §1

[27] = 125 g ai/ha, 14 days after application
[28] = 250 g ai/ha, 14 days after application

Cn1c(=S)n(C)c(=O)n(-c2cc(Oc3ncccn3)c(Cl)cc2F)c1=O [Compound 2-1, 3-[4-Chloro-2-fluoro-5-(2-pyrimidinyloxy)phenyl]-5,6-dihydro-1,5-dimethyl-6-thioxo-1,3,5-triazine-2,4(1H,3H)-dione]
90: SOY crop damage, phytotoxicity rating (0-100 scale) ([23]; 125 g ai/ha)
0: CORN crop damage, phytotoxicity rating (0-100 scale) ([1]; 125 g ai/ha) | SETVI phytotoxicity rating (0-100 scale) ([18]; 31.3 g ai/ha)
70: SORHA phytotoxicity rating (0-100 scale) ([16]; 250 g ai/ha) | SETVI phytotoxicity rating (0-100 scale) [18, 27]
5: CORN crop damage, phytotoxicity rating (0-100 scale) ([1]; 250 g ai/ha)
80: IPOHE phytotoxicity rating (0-100 scale) ([14]; 125 g ai/ha) | SETVI phytotoxicity rating (0-100 scale) [18, 28] | ECHCG phytotoxicity rating (0-100 scale) ([21]; 250 g ai/ha)
65: AMBEL phytotoxicity rating (0-100 scale) [19, 28] | CASOB phytotoxicity rating (0-100 scale) [20, 27] | CORN crop damage, phytotoxicity rating (0-100 scale) ([22]; 250 g ai/ha) | SOY crop damage, phytotoxicity rating (0-100 scale) ([25]; 250 g ai/ha)
60: SORHA phytotoxicity rating (0-100 scale) ([16]; 125 g ai/ha) | SETVI phytotoxicity rating (0-100 scale) ([18]; 62.5 g ai/ha) | AMBEL phytotoxicity rating (0-100 scale) [19, 27] | CASOB phytotoxicity rating (0-100 scale) ([20]; 31.3 g ai/ha) | CASOB phytotoxicity rating (0-100 scale) ([20]; 62.5 g ai/ha)
40: RICE crop damage, phytotoxicity rating (0-100 scale) ([26]; 250 g ai/ha)
50: AMBEL phytotoxicity rating (0-100 scale) ([19]; 31.3 g ai/ha) | AMBEL phytotoxicity rating (0-100 scale) ([19]; 62.5 g ai/ha) | ECHCG phytotoxicity rating (0-100 scale) ([21]; 125 g ai/ha) | CORN crop damage, phytotoxicity rating (0-100 scale) ([22]; 125 g ai/ha) | SOY crop damage, phytotoxicity rating (0-100 scale) ([25]; 125 g ai/ha)
15: RICE crop damage, phytotoxicity rating (0-100 scale) ([26]; 125 g ai/ha)
100: ABUTH phytotoxicity rating (0-100 scale) ([2]; 125 g ai/ha) | ABUTH phytotoxicity rating (0-100 scale) ([2]; 250 g ai/ha) | DIGSA phytotoxicity rating (0-100 scale) ([3]; 125 g ai/ha) | DIGSA phytotoxicity rating (0-100 scale) ([3]; 250 g ai/ha) | IPOHE phytotoxicity rating (0-100 scale) ([4]; 125 g ai/ha) | IPOHE phytotoxicity rating (0-100 scale) ([4]; 250 g ai/ha) | CHEAL phytotoxicity rating (0-100 scale) ([5]; 125 g ai/ha) | CHEAL phytotoxicity rating (0-100 scale) ([5]; 250 g ai/ha) | SORHA phytotoxicity rating (0-100 scale) ([6]; 125 g ai/ha) | SORHA phytotoxicity rating (0-100 scale) ([6]; 250 g ai/ha) | AMARE phytotoxicity rating (0-100 scale) ([7]; 125 g ai/ha) | AMARE phytotoxicity rating (0-100 scale) ([7]; 250 g ai/ha) | SETVI phytotoxicity rating (0-100 scale) ([8]; 125 g ai/ha) | SETVI phytotoxicity rating (0-100 scale) ([8]; 250 g ai/ha) | AMBEL phytotoxicity rating (0-100 scale) ([9]; 125 g ai/ha) | AMBEL phytotoxicity rating (0-100 scale) ([9]; 250 g ai/ha) | CASOB phytotoxicity rating (0-100 scale) ([10]; 125 g ai/ha) | CASOB phytotoxicity rating (0-100 scale) ([10]; 250 g ai/ha) | ECHCG phytotoxicity rating (0-100 scale) ([11]; 125 g ai/ha) | ECHCG phytotoxicity rating (0-100 scale) ([11]; 250 g ai/ha) | ABUTH phytotoxicity rating (0-100 scale) ([12]; 125 g ai/ha) | ABUTH phytotoxicity rating (0-100 scale) ([12]; 250 g ai/ha) | CHEAL phytotoxicity rating (0-100 scale) ([15]; 31.3 g ai/ha) | CHEAL phytotoxicity rating (0-100 scale) ([15]; 62.5 g ai/ha) | CHEAL phytotoxicity rating (0-100 scale) [15, 27] | CHEAL phytotoxicity rating (0-100 scale) [15, 28] | AMARE phytotoxicity rating (0-100 scale) ([17]; 31.3 g ai/ha) | AMARE phytotoxicity rating (0-100 scale) ([17]; 62.5 g ai/ha) | AMARE phytotoxicity rating (0-100 scale) [17, 27] | AMARE phytotoxicity rating (0-100 scale) [17, 28] | SOY crop damage, phytotoxicity rating (0-100 scale) ([23]; 250 g ai/ha)
99: IPOHE phytotoxicity rating (0-100 scale) ([14]; 250 g ai/ha) | RICE crop damage, phytotoxicity rating (0-100 scale) ([24]; 125 g ai/ha) | RICE crop damage, phytotoxicity rating (0-100 scale) ([24]; 250 g ai/ha)
55: DIGSA phytotoxicity rating (0-100 scale) ([13]; 125 g ai/ha) | DIGSA phytotoxicity rating (0-100 scale) ([13]; 250 g ai/ha)
75: CASOB phytotoxicity rating (0-100 scale) [20, 28]

Cn1c(=S)n(C)c(=O)n(-c2cc(Oc3ccccc3)c(Cl)cc2F)c1=O [Compound 2-16]
35: SORHA phytotoxicity rating (0-100 scale) ([6]; 125 g ai/ha) | CASOB phytotoxicity rating (0-100 scale) ([10]; 250 g ai/ha) | ECHCG phytotoxicity rating (0-100 scale) ([11]; 125 g ai/ha) | ECHCG phytotoxicity rating (0-100 scale) ([21]; 250 g ai/ha)
0: CORN crop damage, phytotoxicity rating (0-100 scale) ([1]; 125 g ai/ha) | CORN crop damage, phytotoxicity rating (0-100 scale) ([1]; 250 g ai/ha) | IPOHE phytotoxicity rating (0-100 scale) ([4]; 125 g ai/ha) | ABUTH phytotoxicity rating (0-100 scale) ([12]; 125 g ai/ha) | DIGSA phytotoxicity rating (0-100 scale) ([13]; 125 g ai/ha) | DIGSA phytotoxicity rating (0-100 scale) ([13]; 250 g ai/ha) | IPOHE phytotoxicity rating (0-100 scale) ([14]; 125 g ai/ha) | IPOHE phytotoxicity rating (0-100 scale) ([14]; 250 g ai/ha) | SORHA phytotoxicity rating (0-100 scale) ([16]; 125 g ai/ha) | SORHA phytotoxicity rating (0-100 scale) ([16]; 250 g ai/ha) | AMBEL phytotoxicity rating (0-100 scale) [19, 27] | AMBEL phytotoxicity rating (0-100 scale) [19, 28] | CASOB phytotoxicity rating (0-100 scale) [20, 27] | CASOB phytotoxicity rating (0-100 scale) [20, 28] | ECHCG phytotoxicity rating (0-100 scale) ([21]; 125 g ai/ha) | CORN crop damage, phytotoxicity rating (0-100 scale) ([22]; 125 g ai/ha) | SOY crop damage, phytotoxicity rating (0-100 scale) ([23]; 125 g ai/ha) | SOY crop damage, phytotoxicity rating (0-100 scale) ([23]; 250 g ai/ha) | RICE crop damage, phytotoxicity rating (0-100 scale) ([24]; 125 g ai/ha) | RICE crop damage, phytotoxicity rating (0-100 scale) ([24]; 250 g ai/ha) | SOY crop damage, phytotoxicity rating (0-100 scale) ([25]; 125 g ai/ha) | SOY crop damage, phytotoxicity rating (0-100 scale) ([25]; 250 g ai/ha) | RICE crop damage, phytotoxicity rating (0-100 scale) ([26]; 125 g ai/ha) | RICE crop damage, phytotoxicity rating (0-100 scale) ([26]; 250 g ai/ha)
50: AMBEL phytotoxicity rating (0-100 scale) ([9]; 125 g ai/ha) | SETVI phytotoxicity rating (0-100 scale) [18, 27] | SETVI phytotoxicity rating (0-100 scale) [18, 28]
55: ABUTH phytotoxicity rating (0-100 scale) ([2]; 125 g ai/ha) | AMBEL phytotoxicity rating (0-100 scale) ([9]; 250 g ai/ha)
20: CASOB phytotoxicity rating (0-100 scale) ([10]; 125 g ai/ha)
100: CHEAL phytotoxicity rating (0-100 scale) ([5]; 125 g ai/ha) | CHEAL phytotoxicity rating (0-100 scale) ([5]; 250 g ai/ha) | AMARE phytotoxicity rating (0-100 scale) ([7]; 250 g ai/ha)
70: CHEAL phytotoxicity rating (0-100 scale) [15, 27] | CHEAL phytotoxicity rating (0-100 scale) [15, 28]
95: SETVI phytotoxicity rating (0-100 scale) ([8]; 250 g ai/ha)
75: DIGSA phytotoxicity rating (0-100 scale) ([3]; 125 g ai/ha) | SORHA phytotoxicity rating (0-100 scale) ([6]; 250 g ai/ha)
10: IPOHE phytotoxicity rating (0-100 scale) ([4]; 250 g ai/ha)
40: ABUTH phytotoxicity rating (0-100 scale) ([12]; 250 g ai/ha)
5: CORN crop damage, phytotoxicity rating (0-100 scale) ([22]; 250 g ai/ha)
60: ABUTH phytotoxicity rating (0-100 scale) ([2]; 250 g ai/ha) | SETVI phytotoxicity rating (0-100 scale) ([8]; 125 g ai/ha) | ECHCG phytotoxicity rating (0-100 scale) ([11]; 250 g ai/ha)
80: DIGSA phytotoxicity rating (0-100 scale) ([3]; 250 g ai/ha) | AMARE phytotoxicity rating (0-100 scale) [17, 27] | AMARE phytotoxicity rating (0-100 scale) [17, 28]
99: AMARE phytotoxicity rating (0-100 scale) ([7]; 125 g ai/ha)
